± gives the expanded uncertainty stated by the source.
Assay: mn = molality of the nth substance listed, in mol/kg
Conditions: 101 kPa, Liquid, Direct current cell with electrodes

CCCCn1cc[n+](CCC)c1.[Br-] [1-butyl-3-propyl-1H-imidazolium bromide] + CC#N
molar conductivity [S·m2/mol]
Conditions | 308 K | 313 K | 318 K
m1 = 0.01014 | 0.00955 ± 6e-06 | 0.010075 ± 7e-06 | 0.01063 ± 7e-06
m1 = 0.01352 | 0.00916 ± 6e-06 | 0.009604 ± 6e-06 | 0.010128 ± 7e-06
m1 = 0.01803 | 0.008751 ± 5e-06 | 0.009155 ± 6e-06 | 0.009627 ± 6e-06
m1 = 0.02405 | 0.008325 ± 5e-06 | 0.008691 ± 5e-06 | 0.009114 ± 6e-06
m1 = 0.0275 | 0.008123 ± 5e-06 | – | –
m1 = 0.03209 | 0.007883 ± 4e-06 | 0.008213 ± 5e-06 | 0.008595 ± 5e-06
m1 = 0.04281 | 0.007424 ± 4e-06 | 0.007724 ± 4e-06 | 0.008054 ± 5e-06
m1 = 0.04875 | – | 0.007467 ± 4e-06 | 0.007807 ± 5e-06
m1 = 0.05714 | 0.006944 ± 4e-06 | 0.007222 ± 4e-06 | 0.007523 ± 4e-06
m1 = 0.0656 | 0.006707 ± 4e-06 | 0.006956 ± 4e-06 | 0.007255 ± 4e-06
m1 = 0.07628 | 0.006433 ± 4e-06 | 0.006701 ± 4e-06 | 0.006968 ± 4e-06
m1 = 0.08982 | 0.006124 ± 4e-06 | 0.006393 ± 4e-06 | 0.006648 ± 4e-06
m1 = 0.09987 | 0.00592 ± 4e-06 | 0.006199 ± 4e-06 | 0.006435 ± 4e-06

CCCCn1cc[n+](CCC)c1.[Br-] [1-butyl-3-propyl-1H-imidazolium bromide] + CO
molar conductivity [S·m2/mol]
Conditions | 308 K | 313 K | 318 K
m1 = 0.005755 | 0.006546 ± 5e-06 | – | 0.00748 ± 6e-06
m1 = 0.007673 | 0.006395 ± 5e-06 | 0.006815 ± 6e-06 | 0.00729 ± 6e-06
m1 = 0.01023 | 0.006239 ± 5e-06 | 0.006658 ± 5e-06 | 0.007119 ± 6e-06
m1 = 0.01364 | 0.006083 ± 5e-06 | 0.006493 ± 5e-06 | 0.006946 ± 6e-06
m1 = 0.01819 | 0.005932 ± 5e-06 | 0.006333 ± 5e-06 | 0.006781 ± 6e-06
m1 = 0.02425 | 0.005792 ± 5e-06 | 0.006185 ± 5e-06 | 0.006627 ± 6e-06
m1 = 0.03234 | 0.005668 ± 5e-06 | 0.006052 ± 5e-06 | 0.006491 ± 5e-06
m1 = 0.04311 | 0.005561 ± 5e-06 | 0.005936 ± 5e-06 | 0.006371 ± 5e-06
m1 = 0.05749 | 0.005468 ± 5e-06 | 0.005832 ± 5e-06 | 0.006257 ± 5e-06
m1 = 0.07665 | 0.005372 ± 5e-06 | 0.005703 ± 5e-06 | 0.006123 ± 5e-06
m1 = 0.09017 | 0.005304 ± 4e-06 | 0.005611 ± 5e-06 | 0.006016 ± 5e-06
m1 = 0.1002 | 0.005238 ± 4e-06 | 0.00554 ± 5e-06 | 0.005923 ± 5e-06

From the NIST ThermoML archive (doi:10.1021/je300339q)
